Results reported in patent US10105357B2, “Indication of antibiotic drugs for preparation of cancer inhibition pharmaceutical composition” (LAUNX BIOMEDICAL CO., LTD., priority 2014, dated 2018).
Where two headings read alike, the source gives them in different places.

Tests used:
cancer cell lines = experiment: Cell viability analysis (WST-1) on cancer cell lines; format: cell-based, human; settings: drug 10 μM, 72 hours, WST-1; Table 3
[1] = test system: HI650 (Lung Adenocarcinoma); experiment: Cell viability analysis, lung cancer HI650; format: cell-based, human; settings: Homo sapiens
[2] = test system: A549 (Lung Adenocarcinoma); experiment: Cell viability analysis, lung cancer A549; format: cell-based, human; settings: Homo sapiens
[3] = test system: AGS (Gastric Adenocarcinoma); experiment: Cell viability analysis, gastric cancer AGS; format: cell-based, human; settings: Homo sapiens
[4] = test system: MKN-45 (Gastric Adenocarcinoma); experiment: Cell viability analysis, gastric cancer MKN-45; format: cell-based, human; settings: Homo sapiens
[5] = test system: HepG2 (Hepatocellular Carcinoma); experiment: Cell viability analysis, hepatic cancer HepG2; format: cell-based, human; settings: Homo sapiens
[6] = test system: Hep3B (hepatocellular carcinoma); experiment: Cell viability analysis, hepatic cancer Hep3B; format: cell-based, human; settings: Homo sapiens, Hep3B, 72 h, read-out: The results of antibiotic drug inhibiting cancer cell lines (cell viability analysis), Hep3B
[7] = test system: LoVo (Colorectal Adenocarcinoma); experiment: Cell viability analysis, colon cancer LoVo; format: cell-based, human; settings: Homo sapiens, LoVo
[8] = test system: A375 (Amelanotic Melanoma); experiment: Cell viability analysis, skin cancer A375; format: cell-based, human; settings: Homo sapiens
[9] = test system: BCC (basal cell carcinoma); experiment: Cell viability analysis, skin cancer BCC; format: cell-based, human; settings: Homo sapiens, 72 h, read-out: The results of antibiotic drug inhibiting cancer cell lines (cell viability analysis), BCC
[10] = test system: HeLa (Cervix Adenocarcinoma); experiment: Cell viability analysis, cervical cancer HeLa; format: cell-based, human; settings: Homo sapiens, HeLa
[11] = test system: C-33A (Cervical carcinoma); experiment: Cell viability analysis, cervical cancer C-33A; format: cell-based, human; settings: Homo sapiens, C-33-A, 72 h, read-out: The results of antibiotic drug inhibiting cancer cell lines (cell viability analysis), C-33A
[12] = test system: PC3 (p53−) (Prostate Adenocarcinoma); experiment: Cell viability analysis, prostate cancer PC3; format: cell-based, human; settings: Homo sapiens
[13] = test system: TSGH-8301 (Urinary Bladder Carcinoma); experiment: Cell viability analysis, bladder cancer TSGH-8301; format: cell-based, human; settings: Homo sapiens
T24 = experiment: Cell viability analysis, bladder cancer T24; format: cell-based, human; settings: Homo sapiens, T-24, 72 h, read-out: The results of antibiotic drug inhibiting cancer cell lines (cell viability analysis), T24
[14] = test system: MCF7 (Mammary Gland, Adenocarcinoma); experiment: Cell viability analysis, breast cancer MCF7; format: cell-based, human; settings: Homo sapiens
[15] = test system: MDA-MB-231 (Mammary Gland, Adenocarcinoma); experiment: Cell viability analysis, breast cancer MDA-MB-231; format: cell-based, human; settings: Homo sapiens, MDA-MB-231, 72 h, read-out: The results of antibiotic drug inhibiting cancer cell lines (cell viability analysis), MDA-MB231
BxPC-3 = experiment: Cell viability analysis, pancreatic cancer BxPC-3; format: cell-based, human; settings: Homo sapiens, BXPC-3, 72 h, read-out: The results of antibiotic drug inhibiting cancer cell lines (cell viability analysis), BxPC-3
AsPC-1 = experiment: Cell viability analysis, pancreatic cancer AsPC-1; format: cell-based, human; settings: Homo sapiens, ASPC1, 72 h, read-out: The results of antibiotic drug inhibiting cancer cell lines (cell viability analysis), AsPC-1
NIH: OVCAR-3 = experiment: Cell viability analysis, ovarian cancer NIH: OVCAR-3; format: cell-based, human; settings: Homo sapiens, OVCAR-3, 72 h, read-out: The results of antibiotic drug inhibiting cancer cell lines (cell viability analysis), NIH-OVCAR-3
TOV-21G = experiment: Cell viability analysis, ovarian cancer TOV-21G; format: cell-based, human; settings: Homo sapiens, TOV21G, 72 h, read-out: The results of antibiotic drug inhibiting cancer cell lines (cell viability analysis), TOV-21G
[16] = test system: SAS (Tongue squamous cell carcinoma); experiment: Cell viability analysis, tongue cancer SAS; format: cell-based, human; settings: Homo sapiens, 72 h, read-out: The results of antibiotic drug inhibiting cancer cell lines (cell viability analysis), SAS
U-2OS = experiment: Cell viability analysis, osteosarcoma U-2OS; format: cell-based, human; settings: Homo sapiens, U2OS, 72 h, read-out: The results of antibiotic drug inhibiting cancer cell lines (cell viability analysis), U2OS
[17] = test system: 786-O (Renal adenocarcinoma); experiment: Cell viability analysis, renal cancer 786-O; format: cell-based, human; settings: Homo sapiens, 786-0, 72 h, read-out: The results of antibiotic drug inhibiting cancer cell lines (cell viability analysis), 786-O
[18] = test system: HL-60 (Acute Promyelocytic Leukemia); experiment: Cell viability analysis, leukemia HL-60; format: cell-based, human; settings: Homo sapiens, HL-60; drug 10 μM, 72 hours, WST-1, OD450 nm; read-out: cell viability (survival rate), HL-60
[19] = test system: HCT116 (p53+) (Colorectal Carcinoma)

## CCC[S+]([O-])c1ccc2[nH]c(NC(=O)OC)nc2c1 (stereo not shown) [Albendazole Oxide (Ricobendazole), Albendazole Oxide]
Cancer cell lines
  inhibition effect on different cancer cell lines: significant inhibition effect
[1]; NCI-H1650, 72 h, H1650, repeated experiment, read-out: The results of antibiotic drug inhibiting cancer cell lines (cell viability analysis), H1650
  viability at 10 µM: 64.6%
[1]; NCI-H1650, drug 10 μM, 72 hours, WST-1, OD450 nm, read-out: cell viability (survival rate), H1650
  viability at 10 µM: 59.5%
[2]; 72 h, A549, repeated experiment, read-out: The results of antibiotic drug inhibiting cancer cell lines (cell viability analysis), A549
  viability at 10 µM: 95.5%
[2]; A549, drug 10 μM, 72 hours, WST-1, OD450 nm, read-out: cell viability (survival rate), A549
  viability at 10 µM: 155%
[3]; 72 h, AGS, repeated experiment, read-out: The results of antibiotic drug inhibiting cancer cell lines (cell viability analysis), AGS
  viability at 10 µM: 80%
[3]; drug 10 μM, 72 hours, WST-1, OD450 nm, read-out: cell viability (survival rate), AGS
  viability at 10 µM: 34%
[4]; 72 h, MKN-45, repeated experiment, read-out: The results of antibiotic drug inhibiting cancer cell lines (cell viability analysis), MKN-45
  viability at 10 µM: 74.3%
[4]; MKN-45, drug 10 μM, 72 hours, WST-1, OD450 nm, read-out: cell viability (survival rate), MKN-45
  viability at 10 µM: 60.8%
[5]; 72 h, HepG2, repeated experiment, read-out: The results of antibiotic drug inhibiting cancer cell lines (cell viability analysis), HepG2
  viability at 10 µM: 92.9%
[5]; HepG2, drug 10 μM, 72 hours, WST-1, OD450 nm, read-out: cell viability (survival rate), HepG2
  viability at 10 µM: 104%
[6]
  viability at 10 µM: 97.9%
[7]; 72 h, repeated experiment, read-out: The results of antibiotic drug inhibiting cancer cell lines (cell viability analysis), LoVo
  viability at 10 µM: 88.2%
[7]; drug 10 μM, 72 hours, WST-1, OD450 nm, read-out: cell viability (survival rate), LoVo
  viability at 10 µM: 68.9%
[8]; A-375, 72 h, A375, repeated experiment, read-out: The results of antibiotic drug inhibiting cancer cell lines (cell viability analysis), A375
  viability at 10 µM: 66.5%
[8]; A-375, drug 10 μM, 72 hours, WST-1, OD450 nm, read-out: cell viability (survival rate), A375
  viability at 10 µM: 92.9%
[9]
  viability at 10 µM: 57.1%
[10]; 72 h, repeated experiment, read-out: The results of antibiotic drug inhibiting cancer cell lines (cell viability analysis), HeLa
  viability at 10 µM: 49.4%
[10]; drug 10 μM, 72 hours, WST-1, OD450 nm, read-out: cell viability (survival rate), HeLa
  viability at 10 µM: 56%
[11]
  viability at 10 µM: 102%
[12]; 72 h, PC-3, repeated experiment, read-out: The results of antibiotic drug inhibiting cancer cell lines (cell viability analysis), PC-3
  viability at 10 µM: 78.7%
[12]; drug 10 μM, 72 hours, WST-1, OD450 nm, read-out: cell viability (survival rate), PC3
  viability at 10 µM: 60.5%
[13]; 72 h, TSGH-8301, repeated experiment, read-out: The results of antibiotic drug inhibiting cancer cell lines (cell viability analysis), TSGH-8301
  viability at 10 µM: 63.3%
[13]; drug 10 μM, 72 hours, WST-1, OD450 nm, read-out: cell viability (survival rate), TSGH
  viability at 10 µM: 77.7%
T24
  viability at 10 µM: 89.8%
[14]; MCF7, 72 h, MCF-7, repeated experiment, read-out: The results of antibiotic drug inhibiting cancer cell lines (cell viability analysis), MCF-7
  viability at 10 µM: 68.3%
[14]; MCF7, drug 10 μM, 72 hours, WST-1, OD450 nm, read-out: cell viability (survival rate), MCF7
  viability at 10 µM: 62.3%
[15]
  viability at 10 µM: 81.1%
BxPC-3
  viability at 10 µM: 50.2%
AsPC-1
  viability at 10 µM: 67.6%
NIH: OVCAR-3
  viability at 10 µM: 72.1%
TOV-21G
  viability at 10 µM: 76.3%
[16]
  viability at 10 µM: 92.4%
U-2OS
  viability at 10 µM: 84.8%
[17]
  viability at 10 µM: 86.1%
[18]
  viability at 10 µM: 103%
[19]
  viability: 91.3%

## CC[C@H]1OC(=O)[C@H](C)[C@@H](O[C@H]2C[C@@](C)(OC)[C@@H](O)[C@H](C)O2)[C@H](C)[C@@H](O[C@@H]2O[C@H](C)C[C@H](N(C)C)[C@H]2O)[C@](C)(O)C[C@@H](C)CN(C)[C@H](C)[C@@H](O)[C@]1(C)O [Azithromycin Dihydrate]
Cancer cell lines
  inhibition effect on different cancer cell lines: significant inhibition effect
[1]; NCI-H1650, 72 h, read-out: The results of antibiotic drug inhibiting cancer cell lines (cell viability analysis), H1650, H1650, repeated experiment
  viability at 10 µM: 98.6%
[1]; NCI-H1650, 72 h, read-out: cell viability (survival rate), H1650, drug 10 μM, 72 hours, WST-1, OD450 nm
  viability at 10 µM: 61.3%
[2]; A549, 72 h, read-out: The results of antibiotic drug inhibiting cancer cell lines (cell viability analysis), A549, A549, repeated experiment
  viability at 10 µM: 66.3%
[2]; A549, 72 h, read-out: cell viability (survival rate), A549, drug 10 μM, 72 hours, WST-1, OD450 nm
  viability at 10 µM: 41.4%
[3]; 72 h, read-out: The results of antibiotic drug inhibiting cancer cell lines (cell viability analysis), AGS, repeated experiment
  viability at 10 µM: 77.2%
[3]; 72 h, read-out: cell viability (survival rate), AGS, drug 10 μM, 72 hours, WST-1, OD450 nm
  viability at 10 µM: 72.7%
[4]; MKN-45, 72 h, read-out: The results of antibiotic drug inhibiting cancer cell lines (cell viability analysis), MKN-45, MKN-45, repeated experiment
  viability at 10 µM: 95.8%
[4]; MKN-45, 72 h, read-out: cell viability (survival rate), MKN-45, drug 10 μM, 72 hours, WST-1, OD450 nm
  viability at 10 µM: 51.2%
[5]; HepG2, 72 h, read-out: The results of antibiotic drug inhibiting cancer cell lines (cell viability analysis), HepG2, HepG2, repeated experiment
  viability at 10 µM: 91.4%
[5]; HepG2, 72 h, read-out: cell viability (survival rate), HepG2, drug 10 μM, 72 hours, WST-1, OD450 nm
  viability at 10 µM: 81.1%
[6]
  viability at 10 µM: 109%
[7]; 72 h, read-out: The results of antibiotic drug inhibiting cancer cell lines (cell viability analysis), LoVo, repeated experiment
  viability at 10 µM: 79.2%
[7]; 72 h, read-out: cell viability (survival rate), LoVo, drug 10 μM, 72 hours, WST-1, OD450 nm
  viability at 10 µM: 65.3%
[8]; A-375, 72 h, read-out: The results of antibiotic drug inhibiting cancer cell lines (cell viability analysis), A375, A375, repeated experiment
  viability at 10 µM: 97.4%
[8]; A-375, 72 h, read-out: cell viability (survival rate), A375, drug 10 μM, 72 hours, WST-1, OD450 nm
  viability at 10 µM: 50.8%
[9]
  viability at 10 µM: 70.6%
[10]; 72 h, read-out: The results of antibiotic drug inhibiting cancer cell lines (cell viability analysis), HeLa, repeated experiment
  viability at 10 µM: 105%
[10]; 72 h, read-out: cell viability (survival rate), HeLa, drug 10 μM, 72 hours, WST-1, OD450 nm
  viability at 10 µM: 55.6%
[11]
  viability at 10 µM: 92.6%
[12]; 72 h, read-out: The results of antibiotic drug inhibiting cancer cell lines (cell viability analysis), PC-3, PC-3, repeated experiment
  viability at 10 µM: 97.2%
[12]; 72 h, read-out: cell viability (survival rate), PC3, drug 10 μM, 72 hours, WST-1, OD450 nm
  viability at 10 µM: 43%
[13]; 72 h, read-out: The results of antibiotic drug inhibiting cancer cell lines (cell viability analysis), TSGH-8301, TSGH-8301, repeated experiment
  viability at 10 µM: 119%
[13]; 72 h, read-out: cell viability (survival rate), TSGH, drug 10 μM, 72 hours, WST-1, OD450 nm
  viability at 10 µM: 39.4%
T24
  viability at 10 µM: 112%
[14]; MCF7, 72 h, read-out: The results of antibiotic drug inhibiting cancer cell lines (cell viability analysis), MCF-7, MCF-7, repeated experiment
  viability at 10 µM: 62.3%
[14]; MCF7, 72 h, read-out: cell viability (survival rate), MCF7, drug 10 μM, 72 hours, WST-1, OD450 nm
  viability at 10 µM: 36.4%
[15]
  viability at 10 µM: 97.8%
BxPC-3
  viability at 10 µM: 71.3%
AsPC-1
  viability at 10 µM: 75.3%
NIH: OVCAR-3
  viability at 10 µM: 94%
TOV-21G
  viability at 10 µM: 89.6%
[16]
  viability at 10 µM: 50%
U-2OS
  viability at 10 µM: 70.3%
[17]
  viability at 10 µM: 91%
[19]
  viability: 80.7%
